# Assay results published in article PMC11269473, “Monoamine oxidase inhibition properties of 2,1-benzisoxazole derivatives” (Molecular Diversity, 2023).
# Where two headings read alike, the source gives them in different places.
# Assays:
# recombinant human MAO-A = biological target: T1, recombinant human MAO-A (Homo sapiens, UniProt P21397); assay: MAO-A inhibition, IC50 determination with kynuramine as substrate (fluorescence of 4-hydroxyquinoline); assay type: biochemical; conditions: 50 µM kynuramine, mean ± SD of triplicate, NI = no inhibition observed at 100 µM
# T1 construct: purchased Sigma-Aldrich; host or cells: insect cells (microsomes)
# T1 sequence (P21397 1-527): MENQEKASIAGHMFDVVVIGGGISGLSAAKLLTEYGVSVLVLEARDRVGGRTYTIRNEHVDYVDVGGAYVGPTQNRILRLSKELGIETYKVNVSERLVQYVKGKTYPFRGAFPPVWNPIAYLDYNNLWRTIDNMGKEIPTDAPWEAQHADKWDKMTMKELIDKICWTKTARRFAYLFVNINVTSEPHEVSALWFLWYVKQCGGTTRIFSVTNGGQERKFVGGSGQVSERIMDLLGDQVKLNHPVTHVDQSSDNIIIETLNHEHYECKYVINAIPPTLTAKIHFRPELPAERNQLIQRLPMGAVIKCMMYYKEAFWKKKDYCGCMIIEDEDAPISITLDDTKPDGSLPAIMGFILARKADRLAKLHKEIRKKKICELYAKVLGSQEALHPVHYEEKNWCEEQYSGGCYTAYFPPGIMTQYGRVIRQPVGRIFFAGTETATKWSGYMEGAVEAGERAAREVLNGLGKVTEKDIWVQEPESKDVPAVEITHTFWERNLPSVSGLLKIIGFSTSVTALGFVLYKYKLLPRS
# Experimental: (§1) The MAO inhibition properties of the 2,1-benzisoxazole derivatives were investigated using the commercially available recombinant human MAO-A and MAO-B enzymes with kynuramine serving as substrate. MAO oxidizes kynuramine to yield 4-hydroxyquinoline, which was measured by fluorescence spectrophotometry.
# (§2) For the MAO inhibition studies, a Varian Cary Eclipse fluorescence spectrophotometer was employed. Microsomes from insect cells containing recombinant human MAO-A and MAO-B (5 mg protein/mL) and kynuramine dihydrobromide were obtained from Sigma-Aldrich.
# (§3) IC50 values for the inhibition of MAO were measured as described previously. Microsomes from insect cells containing recombinant human MAO-A and MAO-B (5 mg protein/mL) served as enzyme sources (Sigma-Aldrich) while kynuramine was used as non-specific MAO substrate. The enzyme reactions (200 µL reactions prepared in 96-well microtiter plates) contained phosphate buffer (100 mM, pH 7.4), 50 µM kynuramine and the test inhibitors at concentrations of 0.003–100 µM. […] The reactions were initiated with addition of MAO-A (0.0075 mg protein/mL) or MAO-B (0.015 mg protein/mL) and after 20 min of incubation at 37 °C, the reactions were terminated by the addition of 80 µL NaOH (2 N). The concentration of 4-hydroxyquinoline, the product of kynuramine oxidation by MAO, was measured by fluorescence spectrophotometry (λex = 310 nm; λem = 400 nm). IC50 values were estimated from sigmoidal plots of enzyme catalytic rate versus the inhibitor concentration (log[I]) which were constructed with the Prism software package (GraphPad). IC50 values were estimated in triplicate determinations from these plots and are expressed as mean ± standard deviation (SD).
# recombinant human MAO-B [1] = biological target: T2, recombinant human MAO-B (Homo sapiens, UniProt P27338); assay: Lineweaver–Burk plots / mode of MAO-B inhibition and Ki; assay type: biochemical
# T2 construct: purchased Sigma-Aldrich; host or cells: insect cells (microsomes)
# T2 sequence (P27338 1-520): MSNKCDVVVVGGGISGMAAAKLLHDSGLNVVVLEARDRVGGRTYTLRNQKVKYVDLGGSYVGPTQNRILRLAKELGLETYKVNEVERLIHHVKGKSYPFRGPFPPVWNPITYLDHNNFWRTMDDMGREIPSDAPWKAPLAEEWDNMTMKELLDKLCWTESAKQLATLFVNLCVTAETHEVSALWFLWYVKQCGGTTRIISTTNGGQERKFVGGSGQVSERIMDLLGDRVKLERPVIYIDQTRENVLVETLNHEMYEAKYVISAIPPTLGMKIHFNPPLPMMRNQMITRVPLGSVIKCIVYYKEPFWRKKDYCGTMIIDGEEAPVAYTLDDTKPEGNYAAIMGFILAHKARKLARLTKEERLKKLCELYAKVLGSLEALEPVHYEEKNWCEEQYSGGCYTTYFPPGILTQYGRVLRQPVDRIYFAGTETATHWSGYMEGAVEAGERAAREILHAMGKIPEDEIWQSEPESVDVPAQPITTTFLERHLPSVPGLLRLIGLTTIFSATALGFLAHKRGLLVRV
# Experimental: These two compounds represent potent MAO inhibitors among the study compounds. […] Each line of the Lineweaver–Burk plots was constructed with the kynuramine concentration ranging from 15 to 250 μM.
# The insets are replots of the slopes of the Lineweaver–Burk plots versus inhibitor concentration. The Ki value equals the negative of the x-axis intercept when y = 0
# IC50 values for the inhibition of MAO were measured as described previously. Microsomes from insect cells containing recombinant human MAO-A and MAO-B (5 mg protein/mL) served as enzyme sources (Sigma-Aldrich) while kynuramine was used as non-specific MAO substrate. The enzyme reactions (200 µL reactions prepared in 96-well microtiter plates) contained phosphate buffer (100 mM, pH 7.4), 50 µM kynuramine and the test inhibitors at concentrations of 0.003–100 µM. Stock solutions of the test inhibitors were dissolved in DMSO and added to the enzyme reactions to give a final DMSO concentration of 4% (v/v). The reactions were initiated with addition of MAO-A (0.0075 mg protein/mL) or MAO-B (0.015 mg protein/mL) and after 20 min of incubation at 37 °C, the reactions were terminated by the addition of 80 µL NaOH (2 N). The concentration of 4-hydroxyquinoline, the product of kynuramine oxidation by MAO, was measured by fluorescence spectrophotometry (λex = 310 nm; λem = 400 nm). IC50 values were estimated from sigmoidal plots of enzyme catalytic rate versus the inhibitor concentration (log[I]) which were constructed with the Prism software package (GraphPad). IC50 values were estimated in triplicate determinations from these plots and are expressed as mean ± standard deviation (SD).
# For each line, the concentration of kynuramine ranged from 15–250 µM.
# recombinant human MAO-B [2] = biological target: T2, recombinant human MAO-B; assay: MAO-B inhibition, IC50 determination with kynuramine as substrate (fluorescence of 4-hydroxyquinoline); assay type: biochemical
# Experimental: as §1, §2
# as §3, with “The” for “The reactions were initiated with addition of MAO-A (0.0075 mg protein/mL) or MAO-B (0.015 mg protein/mL) and after 20 min of incubation at 37 °C, the reactions were terminated by the addition of 80 µL NaOH (2 N). The”
# human MAO-B = biological target: human MAO-B; parameters: method as in PMID 21175212; conditions: competitive inhibitor; cited from earlier work
IC50 (recombinant human MAO-A) [µM],mode of MAO-B inhibition (recombinant human MAO-B [1]; Lineweaver–Burk lines intersect on the y-axis),"Ki (recombinant human MAO-B [1]; global (shared) fitting of the inhibition data, read-out: Ki, MAO-B, global (shared) fitting to the Michaelis–Menten equation) [nM]","Ki (recombinant human MAO-B [1]; replot of slopes versus inhibitor concentration, Ki = −x when y = 0, kynuramine 15–250 µM, read-out: Ki, MAO-B, from replot of slopes of Lineweaver–Burk plots) [nM]",SI (selectivity index) (recombinant human MAO-B [2]; SI = IC50(MAO-A)/IC50(MAO-B)),"IC50 (recombinant human MAO-B [2]; recombinant human MAO-B, 50 µM kynuramine, mean ± SD of triplicate, NI = no inhibition observed at 100 µM) [µM]",melting point [°C],SMILES,Ki (human MAO-B) [µM]
19 ± 1.2,competitive,10 ± 1.5,6.2,1138,0.017 ± 0.0045,240 to 241,"N#Cc1ccc(-c2onc3c(Cl)cc(Cl)cc23)cc1 [Compound 7a, 4-(5,7-Dichlorobenzo[c]isoxazol-3-yl)benzonitrile]",
,,,,,,,"NS(=O)(=O)Cc1noc2ccccc12 [Zonisamide, zonisamide]",3.1
